These results are taken from US20030055065A1, “Tricyclic amide and urea compounds useful for inhibition of G-protein function and for treatment of proliferative diseases” (priority 1993, published 2003).

This assay has as its target T1, farnesyl protein transferase (FPT), partially purified from rat brain (Rattus norvegicus, UniProt Q02293+Q04631).
T1 construct: were partially purified from rat brain by ammonium sulfate fractionation followed by Q-Sepharose
Description: Inhibition of farnesyl protein transferase (transfer of [3H]farnesyl to Ras-CVLS). Type of assay: biochemical. To be noted: for IC50: read-out: FPT IC50. As to the method:
1. In vitro enzyme assays: Inhibition of farnesyl protein transferase and geranylgeranyl protein transferase.
Human farnesyl protein transferase was also expressed in E. coli, using cDNA clones encoding both the α and β subunits. […] Human farnesyl protein transferase was partially-purified from the soluble protein fraction of E. coli as described above. […] Two forms of val^12-Ha-Ras protein were prepared as substrates for these enzymes, differing in their carboxy terminal sequence. One form terminated in cysteine-valine-leucine-serine (Ras-CVLS) the other in cystein-valine-leucine-leucine (Ras-CVLL). Ras-CVLS is a substrate for the farnesyl protein transferase while Ras-CVLL is a substrate for geranylgeranyl protein transferase I. The cDNAs encoding these proteins were constructed so that the proteins contain an amino-terminal extension of 6 histidine residues. Both proteins were expressed in Escherichia coli and purified using metal chelate affinity chromatography. The radiolabelled isoprenyl pyrophosphate substrates, [^3H]farnesyl pyrophosphate and [3H]geranylgeranyl pyrophosphate, were purchased from DuPont/New England Nuclear.
The reaction was allowed to proceed for 30 minutes at room temperature and then stopped with 0.5 ml of 4% sodium dodecyl sulfate (SDS) followed by 0.5 ml of cold 30% trichloracetic acid (TCA). Samples were allowed to sit on ice for 45 minutes and precipitated Ras protein was then collected on GF/C filter paper mats using a Brandel cell harvester. […] Percent inhibition was calculated relative to the DMSO vehicle control.

The mark [1] stands for this setting: Ras-CVLS farnesylation, partially purified rat brain FPT.

Values joined by “and” are separate entries in the source; they are usually repeats but may differ in a detail not shown here. Equal entries are not always repeated. Where two headings read alike, the source gives them in different places.

T1 sequence (Q02293 whole entry, one chain of several): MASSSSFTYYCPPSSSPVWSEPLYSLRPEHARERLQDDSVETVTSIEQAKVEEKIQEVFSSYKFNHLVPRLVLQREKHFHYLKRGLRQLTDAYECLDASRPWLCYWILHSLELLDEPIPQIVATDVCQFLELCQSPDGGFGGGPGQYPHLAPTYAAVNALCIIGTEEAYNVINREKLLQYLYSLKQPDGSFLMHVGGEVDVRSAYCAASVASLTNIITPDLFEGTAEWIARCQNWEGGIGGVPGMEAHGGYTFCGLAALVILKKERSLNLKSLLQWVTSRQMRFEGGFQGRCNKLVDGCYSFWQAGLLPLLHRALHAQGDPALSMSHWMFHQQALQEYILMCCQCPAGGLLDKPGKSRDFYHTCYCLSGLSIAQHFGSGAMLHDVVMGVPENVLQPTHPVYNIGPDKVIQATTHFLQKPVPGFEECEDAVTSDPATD

The IC50 is the concentration that inhibits the measured activity by half. `O=C(Cc1cccnc1)N1CCC(C2c3ccc(Cl)cc3C=Cc3c(Cl)ccnc32)CC1` (stereo not shown) [Example 273]: the IC50 under setting [1] came to 0.84 µM.
Still for that read-out and setting: for `O=C(Nc1cccnc1)N1CCC(=C2c3ccc(Cl)cc3C=Cc3cccnc32)CC1` [Example 277] the value was 2.3 µM.
For `O=C1Cc2cc(Cl)ccc2C(=C2CCN(C(=O)Cc3cccnc3)CC2)c2ncccc21` [Example 279], the IC50 under setting [1] came out at 7.7 µM.
Same read-out and setting: for `O=C(Cc1cccnc1)N1CCC(=C2c3ccc(Cl)cc3CC(O)c3cccnc32)CC1` (stereo not shown) [Example 280] the value was 23 µM.
Still for that read-out and setting: in the case of `O=C(Cc1ccncc1)N1CCC(=C2c3ccc(Cl)cc3CC(O)c3cccnc32)CC1` (stereo not shown) [Example 282] it was 4.5 µM; in that of `O=C(Cc1cccnc1)N1CCC(=C2c3ccc(Cl)cc3C(O)Cc3cccnc32)CC1` (stereo not shown) [Example 284], 4.3 µM.
Regarding `O=C(C(=O)N1CCC(=C2c3ccc(Cl)cc3CCc3cccnc32)CC1)c1ccccc1` [Example 296], the IC50 under setting [1] amounted to 4.1 µM.
For the compound `CC(C)(C(=O)N1CCC(=C2c3ccc(Cl)cc3CCc3cccnc32)CC1)c1ccncc1` [Example 299], the IC50 under setting [1] was 1.34 µM.
`O=C(Cc1cccnc1)N1CCC(=C2c3ccccc3CCc3cccnc32)CC1` [Example 323]: under setting [1], the half-maximal inhibitory concentration (IC50) came to 4.9 µM.
On the same count and under the same terms, in the case of `O=C(Cc1ccncc1)N1CCC(=C2c3ccc(Cl)cc3CCc3c2ncc(Br)c3Cl)CC1` [Example 356] it was 0.062 µM and 0.073 µM; in that of `CC(C)(C(=O)N1CCC(=C2c3ccc(Cl)cc3CCc3cc(Br)cnc32)CC1)c1ccc[n+]([O-])c1` [Example 360], 0.59 µM.
Still for that read-out and setting: for `CC(C)(C(=O)N1CCC(=C2c3ccc(Cl)cc3CCc3cc(Br)cnc32)CC1)c1ccncc1` [Example 361] the value was 0.32 µM.
As to `CCc1cc2c(cc1Cl)C=Cc1cccnc1C2C1CCN(C(=O)Cc2ccncc2)CC1` (stereo not shown) [Example 362], under setting [1], the IC50 came out at 1.16 µM.
Take `O=C(c1c[nH]c2ccccc12)N1CCN(C2c3ccc(Cl)cc3CCc3cccnc32)CC1` (stereo not shown) [Example 368]: the FPT inhibition (at 12 μM) is reported as 14 @12 μM %.
In the case of `N#CCC(=O)N1CCC(=C2c3ccc(Cl)cc3CCc3cc(Br)cnc32)CC1` [Example 400-A], the IC50 under setting [1] worked out at 2.6 µM.
As for `CCCCNc1c(Br)cnc2c1CCc1cc(Cl)ccc1C2=C1CCN(C(=O)Cc2ccncc2)CC1` [Example 400-M], where the note is “enzyme inhibition”, the half-inhibitory concentration (IC50) came out at 0.9 µM.
As for `CC1(C2CCN(C(=O)Cc3cc[n+]([O-])cc3)CC2)c2ccc(Cl)cc2CCc2cccnc21` (stereo not shown) [Example 401-A], under setting [1], the IC50 came out at 1.7 µM.
On the same count and under the same terms, in the case of `CC(=O)Nc1cnc2c(c1)CCc1cc(Cl)ccc1C2=C1CCN(C(=O)Cc2ccncc2)CC1` [Example 403] it was 1000 µM.
Consider `CS(=O)(=O)Nc1cnc2c(c1)CCc1cc(Cl)ccc1C2=C1CCN(C(=O)Cc2ccncc2)CC1` [Example 404], for which, under setting [1], the IC50 is 4.6 µM.
Turning to `N#Cc1cnc2c(c1)CCc1cc(Cl)ccc1C2=C1CCN(C(=O)Cc2ccncc2)CC1` [Example 406], the IC50 (enzyme inhibition) was 1.4 µM.
Take `CC1(C2CCN(C(=O)Cc3ccc[n+]([O-])c3)CC2)c2ccc(Cl)cc2CCc2cc(Br)cnc21` (stereo not shown) [Example 410-C]: the IC50 under setting [1] came out at 0.052 µM.
Same read-out and setting: for `CC1(C2=CCN(C(=O)Cc3ccncc3)CC2)c2ccc(Cl)cc2CCc2cccnc21` (stereo not shown) [Example 410-F] the value was 2.2 µM; for `CN1CCN(CC(=O)N2CCC(=C3c4ccc(Cl)cc4CCc4cccnc43)CC2)CC1` [Example 410-H], 7 µM; for `CN1CCN(CC(=O)N2CCC(=C3c4ccc(Cl)cc4CCc4cc(Br)cnc43)CC2)CC1` [Example 410-J], 1.9 µM.
On the same count and under the same terms, for `O=C(Cc1ccncc1)N1CCC(C2c3ccc(Cl)cc3C([N+](=O)[O-])=Cc3cccnc32)CC1` (stereo not shown) [Example 410-L] the value was 2.9 µM.
Turning to `CN1CCC(CC(=O)N2CCC(=C3c4ccc(Cl)cc4CCc4c3n(C)cc(Br)c4=O)CC2)CC1` [Example 410-M], the IC50 under setting [1] was around 12 µM.
On the same count and under the same terms, in the case of `O=C(Cc1ccnc(-n2ccnc2)c1)N1CCC(=C2c3ccc(Cl)cc3CCc3cc(Br)cnc32)CC1` [Example 410-T] it was 1.8 µM.
The same measure, in the same setting: in the case of `CSc1cc(CC(=O)N2CCC(=C3c4ccc(Cl)cc4CCc4cc(Br)cnc43)CC2)ccn1` [Example 410-V] it was 1.17 µM.
In the case of `CC1(C2CCN(C(=O)Cc3ccncc3)CC2)c2ccc(Cl)cc2CCc2cccnc21` (stereo not shown) [Example 410], the IC50 under setting [1] came to 0.7 µM.
`O=C(Cc1ccncc1)N1CCC(=C2c3ccc(Cl)cc3CCc3ccc(O)nc32)CC1` [Example 411-C]: the IC50 (enzyme inhibition) is 6 µM.
On the same count and under the same terms, in the case of `O=C(Cc1ccnc(OCc2ccccc2)c1)N1CCC(=C2c3ccc(Cl)cc3CCc3cc(Br)cnc32)CC1` [Example 411-DD] it was 3.1 µM.
For the compound `O=C(Cc1cc[nH]c(=O)c1)N1CCC(=C2c3ccc(Cl)cc3CCc3cc(Br)cnc32)CC1` [Example 411-EE], the “FPT inhibition at the concentration in parentheses” value (“FPT inhibition at the concentration” below) ((3.3) μM) is 10 (3.3).
As for `O=C(Cc1ccnc(N2CCCCC2)c1)N1CCC(=C2c3ccc(Cl)cc3CCc3cc(Br)cnc32)CC1` [Example 411-FF], the concentration for half-maximal inhibition (IC50) (enzyme inhibition) turned out to be 1.8 µM.
In the case of `O=C(Cc1ccncc1)N1CCC(=C2c3cc([N+](=O)[O-])c(Cl)cc3CCc3cccnc32)CC1` [Example 411-F], where the note is “enzyme inhibition”, the IC50 was 1.28 µM.
Same read-out and setting: in the case of `O=C(Cc1ccncc1)N1CCC(=C2c3ccc(Cl)cc3CCc3cc(Cl)ccc32)CC1` [Example 411-L] it was 0.82 µM.
As to `O=C(Cc1ccncc1)N1CCC(=C2c3ccc(Cl)cc3CCc3cc(F)cnc32)CC1` [Example 411-M], the IC50 (enzyme inhibition) was 0.65 µM.
As for `O=C(Cc1cc[n+]([O-])cc1)N1CCC(=C2c3ccc(Cl)cc3CCc3cc(F)cnc32)CC1` [Example 411-N], the “FPT inhibition at the concentration” value ((1.3) μM) was 44(1.3). Under “enzyme inhibition”, the IC50 was around 2 µM.
On to `CC(C)(C(=O)N1CCC(=C2c3ccc(Cl)cc3CCc3cc(F)cnc32)CC1)c1cc[n+]([O-])cc1` [Example 411-O], for which, where the note is “(4) μM”, the “FPT inhibition at the concentration” value is on record as 39 (4). The IC50 (enzyme inhibition) is around 5 µM.
As for `O=C(Cc1ccc[n+]([O-])c1)N1CCC(=C2c3ccc(Cl)cc3CCc3cc(F)cnc32)CC1` [Example 411-Q], the “FPT inhibition at the concentration” value ((4.3) μM) is recorded as 33 (4.3). For the same compound, the IC50 (enzyme inhibition) is around 10 µM.
`CN1CCC(CC(=O)N2CCC(=C3c4ccc(Cl)cc4CCc4cc(F)cnc43)CC2)CC1` [Example 411-R]: the “FPT inhibition at the concentration” value ((1.3) μM) is recorded as 29 (1.30). Also, the IC50 (enzyme inhibition) is around 4 µM.
As to `CN1CCCC(CC(=O)N2CCC(=C3c4ccc(Cl)cc4CCc4cc(F)cnc43)CC2)C1` (stereo not shown) [Example 411-S], the IC50 (enzyme inhibition) was 2.1 µM.
Still for that read-out and setting: in the case of `O=C(Cc1cccnc1)N1CCC(=C2c3ccc(Cl)cc3CCc3cc(Cl)cnc32)CC1` [Example 411-T] it was 0.58 µM.
As to `O=C(Cc1ccc[n+]([O-])c1)N1CCC(=C2c3ccc(Cl)cc3CCc3cc(Cl)cnc32)CC1` [Example 411-U], where the note is “enzyme inhibition”, the IC50 is 1.12 µM.
Take `CN1CCCC(CC(=O)N2CCC(=C3c4ccc(Cl)cc4CCc4cc(Cl)cnc43)CC2)C1` (stereo not shown) [Example 411-V]: the IC50 (enzyme inhibition) is 0.27 µM.
The same measure, in the same setting: for `CN1CCC(CC(=O)N2CCC(=C3c4ccc(Cl)cc4CCc4cc(Cl)cnc43)CC2)CC1` [Example 411-X] the value was 0.45 µM; for `O=C(Cc1ccc[n+]([O-])c1)N1CCC(C2c3ccc(Cl)cc3CCc3cc(Br)cnc32)CC1` (stereo not shown) [Example 411-Z], 1.5 µM.
In the case of `O=C(Cn1cncn1)N1CCC(=C2c3ccc(Cl)cc3CCc3cc(Br)cnc32)CC1` [Example 412], under setting [1], the IC50 came to 0.52 µM.
Consider `O=C(Nc1ccccc1)N1CCC(=C2c3ccc(Cl)cc3CCc3c(Cl)ccnc32)CC1` [Example 414-A], for which the concentration for half-maximal inhibition (IC50) (enzyme inhibition) stood at 1.9 µM.
